The results in this text go back to ChEMBL document CHEMBL5625165, “Nine-valent oleanolic acid conjugates as potent inhibitors blocking the entry of influenza A virus” (Eur J Med Chem, 2023).

Active and inactive are the calls of the source. The rule behind the calls is not given here. Some results are limits rather than exact numbers.

A short description of data set [1]: Cytotoxicity against dog MDCK cells assessed as reduction in cell viability incubated for 48 hrs by celltiter-glo assay. Format: toxicity, cell-based, Canis lupus familiaris.
For data set [2], the system named is Influenza A virus. The data set is described as follows: Antiviral activity against influenza A virus A/WSN/33(H1N1) infected in MDCK cells assessed as inhibition of viral-induced cytopathic effect incubated for 48 hrs by microscopic analysis. Format: functional, organism-based.
Data set [3] in a line: Binding affinity to influenza A virus H1N1 (A/michigan/45/2015) assessed as dissociation constant by SPR analysis. Background: In SPR one partner is held on a chip, and binding of the other changes the refractive index at the surface.
Data set [4] concerns Influenza A virus. The data set is described as follows: Antiviral activity against influenza A virus A/WSN/33(H1N1) infected in MDCK cells assessed as inhibition of virus-induced cytopathic effect at 30 uM incubated for 48 hrs by microscopic analysis. Format: functional, organism-based. (Damage to the host cells serves as the signal in cytopathic effect assays.)
In data set [5] the test system is Influenza A virus. The data set is described as follows: Antiviral activity against influenza A virus A/WSN/33(H1N1) infected in MDCK cells assessed as reduction in M2 expression measured upto 2 hrs by time of addition assay. Also noted: scale not given: the % may be the effect or the level left. In kind it is functional.
Data set [6] in a line: Selectivity index, ratio of CC50 for cytotoxicity against dog MDCK cells assessed as reduction in cell viability to IC50 for antiviral activity against influenza A virus B/Sichuan/531/2018 (Victoria) infected in MDCK cells assessed as inhibition of viral growth. In kind it is toxicity, cell-based. The note with it: read-out: Ratio CC50/IC50.
In data set [7] the test system is Influenza A virus. The data set is described as follows: Antiviral activity against influenza A virus A/WSN/33(H1N1) infected in MDCK cells assessed as inhibition of viral growth at 30 uM incubated for 48 hrs by microscopic analysis. Details: scale not given: the % may be the effect or the level left. In kind it is functional.
Data set [8] in a line: Cytotoxicity against dog MDCK cells assessed as cell viability at 30 uM incubated for 48 hrs by celltiter-glo assay. The note with it: read-out: Activity. In kind it is toxicity, cell-based, Canis lupus familiaris. (In general: Cellular ATP, detected with luciferase, serves as a proxy for viable cell number.)
The subject of data set [9] is Influenza A virus. The data set is described as follows: Antiviral activity against influenza A virus B/Sichuan/531/2018 (Victoria) infected in MDCK cells assessed as inhibition of viral growth. In kind it is functional, organism-based.
Data set [10] in a line: Selectivity index, ratio of CC50 for cytotoxicity against dog MDCK cells assessed as reduction in cell viability to IC50 for antiviral activity against influenza A virus A/WSN/33(H1N1) infected in MDCK cells assessed as inhibition of viral-induced cytopathic effect. In kind it is toxicity, cell-based. The note with it: read-out: Ratio CC50/IC50.
In another data set the test system is Erythrocyte. Put plainly: Inhibition of hemagglutination in chicken RBC cells infected with Influenza A virus A/WSN/33 (H1N1) assessed as reduction in virus-induced agglutination of erythrocytes at 0.24 to 15 uM incubated for 24 mins. The note with it: Gallus gallus, dose 0.24-15 µM. In kind it is functional, cell-based.

`CC1(C)CC[C@]2(C(=O)NCCOCCOCCOCCn3cc(COc4cc(C(=O)NCCOCCOCCOCCn5cc(COc6cc(OCc7cn(CCOCCOCCOCCNC(=O)c8cc(OCc9cn(CCOCCOCCOCCNC(=O)[C@]%10%11CCC(C)(C)C[C@H]%10C%10=CC[C@@H]%12[C@@]%13(C)CC[C@H](O)C(C)(C)[C@@H]%13CC[C@@]%12(C)[C@]%10(C)CC%11)nn9)c(OCc9cn(CCOCCOCCOCCNC(=O)[C@]%10%11CCC(C)(C)C[C@H]%10C%10=CC[C@@H]%12[C@@]%13(C)CC[C@H](O)C(C)(C)[C@@H]%13CC[C@@]%12(C)[C@]%10(C)CC%11)nn9)c(OCc9cn(CCOCCOCCOCCNC(=O)[C@]%10%11CCC(C)(C)C[C@H]%10C%10=CC[C@@H]%12[C@@]%13(C)CC[C@H](O)C(C)(C)[C@@H]%13CC[C@@]%12(C)[C@]%10(C)CC%11)nn9)c8)nn7)cc(OCc7cn(CCOCCOCCOCCNC(=O)c8cc(OCc9cn(CCOCCOCCOCCNC(=O)[C@]%10%11CCC(C)(C)C[C@H]%10C%10=CC[C@@H]%12[C@@]%13(C)CC[C@H](O)C(C)(C)[C@@H]%13CC[C@@]%12(C)[C@]%10(C)CC%11)nn9)c(OCc9cn(CCOCCOCCOCCNC(=O)[C@]%10%11CCC(C)(C)C[C@H]%10C%10=CC[C@@H]%12[C@@]%13(C)CC[C@H](O)C(C)(C)[C@@H]%13CC[C@@]%12(C)[C@]%10(C)CC%11)nn9)c(OCc9cn(CCOCCOCCOCCNC(=O)[C@]%10%11CCC(C)(C)C[C@H]%10C%10=CC[C@@H]%12[C@@]%13(C)CC[C@H](O)C(C)(C)[C@@H]%13CC[C@@]%12(C)[C@]%10(C)CC%11)nn9)c8)nn7)c6)nn5)cc(OCc5cn(CCOCCOCCOCCNC(=O)[C@]67CCC(C)(C)C[C@H]6C6=CC[C@@H]8[C@@]9(C)CC[C@H](O)C(C)(C)[C@@H]9CC[C@@]8(C)[C@]6(C)CC7)nn5)c4OCc4cn(CCOCCOCCOCCNC(=O)[C@]56CCC(C)(C)C[C@H]5C5=CC[C@@H]7[C@@]8(C)CC[C@H](O)C(C)(C)[C@@H]8CC[C@@]7(C)[C@]5(C)CC6)nn4)nn3)CC[C@]3(C)C(=CC[C@@H]4[C@@]5(C)CC[C@H](O)C(C)(C)[C@@H]5CC[C@]43C)[C@@H]2C1`: the CC50 at 48 h in data set [1] was > 30 µM. The IC50 in the data set with Influenza A virus [2] was found to be 5.23 µM; in the data set with Influenza A virus [9], 33.5 µM. Besides, the Kd in data set [3] amounted to 12.9 µM. In the data set with Influenza A virus [4], the outcome was Active. The Activity is >90% with Influenza A virus [5] and 76.88% with Influenza A virus [7]. For the same compound, the selectivity ratio in [6] is > 0.9; in data set [10] it was > 5.74. Moreover, the viability at 48 h, 30 µM in [8] is 100%. Further, the inhibition entry in the data set with Erythrocyte was “Active”.

For orientation: CC50 means the concentration that lowers cell viability or growth by half. A word on the IC50: it is the concentration that gives 50% inhibition. A word on the Kd: it is the equilibrium constant for the complex coming apart.
